Assay results taken from paper PMC12163635, “Synthetic Retinoids for the Modulation of Genomic and Nongenomic Processes in Neurodegenerative Diseases” (ACS Omega, 2025).

Key:
[1] = system: Sil-15 cells containing a RARE driving a lacZ reporter; assay: X-Gal-based RA reporter assay (genomic response); format: cell-based; parameters: genomic response Emax (±95% CI): unit not given here; conditions: for genomic response Emax (±95% CI) / EC50: Sil-15 reporter cells; for genomic response Emax (±95% CI): absorbance at 650 nm; for EC50: read-out: genomic response EC50 (±95% CI), overnight, 10^–6 to 10^–14 M; for genomic EC50 compared with ATRA: nonoverlapping 95% CI
Description: Following chemical design and synthesis, the synthetic retinoid library was screened for genomic and nongenomic biological activities and compared to the response of the endogenous retinoid, ATRA. In these assays, the EC50 value represented the concentration of retinoid that gave half-maximal response (potency), while the E max value represented the maximum response achievable from the retinoid (efficacy).
The transcriptional genomic activity of the retinoids was quantified using Sil-15 cells containing a RARE driving a lacZ reporter. […] Twenty-two of the synthetic retinoids were effective in inducing genomic activity. […] In addition, the retinoids varied in their efficacies.
The Sil-15 cell line was used in the X-gal RA reporter assay described below. The cells were grown in Dulbecco’s modified Eagle’s medium (DMEM) containing 10% fetal bovine serum (FCS) (Invitrogen/Gibco), 0.6% penicillin-streptomycin (Gibco) and 0.8 mg/mL G418 sulfate (Sigma) for selection. They were maintained in a humidified atmosphere containing 5% CO2 at 37 °C. The medium was changed three times a week and the cells were passaged at 70% confluence using 0.05% trypsin-EDTA.
Sil-15 cells are F9 teratocarcinoma cells stably transfected with a plasmid containing the LacZ gene under the control of a DR5-type RA response element (RARE). The reporter cell line was used to detect the transcriptional genomic activity of ATRA and other retinoids by colorimetrically quantifying the insoluble blue product generated by β-galactosidase from X-gal during the assay. The assay was performed by plating 100,000 cells per well in the 0.1% gelatin-coated 96-well plates and leaving them to attach overnight. The ATRA/retinoids dilutions ranging from 10^–6 to 10^–14 M were incubated on the reporter cells overnight at 37 °C, in 5% CO2. A standard curve of ATRA was included in each experiment to ensure the reproducibility of the results between assays performed on different days. All the assays for ATRA as well as the retinoids were quantified in triplicate. Serial dilutions of retinoids were prepared from a stock solution under red/orange light. The stock solutions prepared in DMSO for each retinoid varied depending on the solubility of each compound. Each stock was stored at −20 °C and protected from light. The next day, Sil-15 cells were washed with PBS, fixed with 1% glutaraldehyde and 1 mM MgCl2 solution for 15 min, and developed in X-gal developing solution (0.2% X-Gal, 1 mM MgCl2, 3.3 mM potassium ferricyanide and 3.3 mM potassium ferrocyanide in PBS). The plates were read on an E max microplate reader (Molecular Devices) at 650 nm.
(§1) All data are presented as mean ± SEM of three independent experiments with biological triplicates. Statistical analyses were performed in Microsoft Office Excel 2019 or GraphPad Prism 7.0c version (Prism, GraphPad Software, San Diego, CA). Neurite outgrowth data were analyzed by one-way ANOVA with Newman-Keuls multiple comparison test as appropriate; P value <0.05 was considered statistically significant. *P < 0.05, **P < 0.01. Data for X-Gal and ERK1/2 phosphorylation were analyzed using sigmoidal dose–response analysis of log (agonist) versus response curve (stimulation).

[2] = system: ERK1/2 phosphorylation in SH-SY5Y cells; assay: ERK1/2 phosphorylation (nongenomic response), AlphaScreen SureFire; format: cell-based, human; conditions: for EC50: Homo sapiens, read-out: nongenomic response EC50 (±95% CI); for EC50 / nongenomic response Emax (±95% CI): SH-SY5Y cells, 1 h; for nongenomic E max compared with ATRA: nonoverlapping 95% CI
Description: After screening the retinoids for genomic responses, they were tested for their nongenomic ability to rapidly phosphorylate ERK1/2 in the SH-SY5Y cell line. ATRA is known as a potent activator of ERK1/2 − and was used as the standard for comparison. […] The efficacies of the remaining seven retinoids were similar to ATRA.
(§2) SH-SY5Y cell line as used in ERK phosphorylation and neurite outgrowth assays described below. The cells were grown in DMEM containing 10% FCS at 37 °C with 5% CO2. The medium was changed three times a week and the cells were passaged at 70% confluence using 0.05% trypsin-EDTA.
To quantify ERK1/2 phosphorylation, SH-SY5Y cells (100,000 cells/well) were plated onto 96-well plates and serum-starved for 24 h in DMEM. Cells were assayed in serum-free DMEM and stimulated for 60 min at 37 °C in a humidified atmosphere. Retinoids were tested at concentrations ranging from 10 to 4 to 10–11 M and at a final concentration of 0.1% DMSO. At the end of the assay, the medium was removed, and cells were lysed with lysis buffer supplied in the AlphaScreen SureFire ERK1/2 kit (PerkinElmer). The assay was performed in 384-well white Proxiplates according to the manufacturer’s instructions and using the beads supplied in the protein A general IgG detection kit (PerkinElmer). Briefly, 4 μL samples were incubated with 7 μL of the freshly prepared mixture containing donor and acceptor beads. Plates were incubated at room temperature and read with the Envision system (PerkinElmer Life Sciences) using AlphaScreen settings.
as §1

SH-SY5Y cells = assay: Neurite outgrowth; format: cell-based, human; conditions: 10 nM, 5 days
Description: Following the characterization of retinoids for their genomic and nongenomic activities, the ability of retinoids to differentiate and induce neurite outgrowth in the neuroblastoma cell line, SH-SY5Y cells, was examined (Figure ). Neurite outgrowth can be induced in this cell line by ATRA at 10 μM.
as §2
SH-SY5Y cells were plated at 10,000 cells/well in 12-well plates containing 16 mm acid-treated/poly L-lysine-coated glass coverslips. After 24 h, retinoids were added to the medium and tested at two different concentrations, 10 μM and 10 nM, with a final DMSO concentration of 0.01 or 0.0001%, respectively. The plates were incubated for 5 days at 5% CO2/37 °C. All retinoid concentrations were tested in triplicate. Cells were fixed using 4% paraformaldehyde and stained for β-III tubulin (1:1000; Sigma). For each neurite outgrowth experiment, 3 coverslips (in 3 wells) were used. ImageJ software with the NeuronJ plugin was used to quantify neurite outgrowth on stained cells in each of the 10 randomly selected images of each coverslip taken using a Nikon Eclipse E400 fluorescence microscope. The average neurite length was calculated for each image by dividing total neurite length by the total number of neurites per image.
as §1

EC50 [1] [nM]	EC50 [2] [nM]	Structure (SMILES)	genomic response Emax (±95% CI) [1]	nongenomic response Emax (±95% CI) [2]	induction of neurite outgrowth compared with ATRA (SH-SY5Y cells)	genomic EC50 compared with ATRA [1]	nongenomic E max compared with ATRA [2]
1.04	33.1	CC1=C(/C=C/C(C)=C/C=C/C(C)=C/C(=O)O)C(C)(C)CCC1 [ATRA, all-trans retinoic acid, reference compound]	170 (±5.65)	48.6 (±1.85)	does not significantly induce such outgrowth	–	–
5.31	90.8	COc1cc2c(cc1C#Cc1ccc(C(=O)O)cc1F)C(C)(C)CCC2(C)C [Compound 21, 3-Fluoro-4-[2-(3-methoxy-5,5,8,8-tetramethyl-5,6,7,8-tetrahydronaphthalen-2-yl)ethynyl]benzoic Acid]	–	36.9 (±2.86)	induced neurite outgrowth but not significantly compared to ATRA	significantly higher EC50 values than ATRA	E max values significantly lower than ATRA
0.128	30.6	CC1(C)CCC(C)(C)c2cc(C#Cc3ccc(C(=O)O)cc3)ccc21 [EC23, reference compound]	169 (±10.8)	92.5 (±6.96)	induced significant neurite outgrowth compared to ATRA	significantly lower EC50 than ATRA	E max values significantly higher than ATRA
